From patent publication US9695155B2, “Herbicidal substituted pyrimidinyloxy benzene compounds” (E. I. DU PONT DE NEMOURS AND COMPANY, priority 2013, dated 2017)

Experiments:
barnyardgrass [1] = test: Test A preemergence; format: in vivo, Echinochloa crus-galli
Outline: (§1)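 Visual 0–100 rating (100 = complete control) taken about 10 d post-treatment relative to untreated checks. Preemergence: directed soil spray on sown loam/sand pots. Postemergence: seedlings 2–10 cm, 1–2 leaf. Non-phytotoxic solvent formulation with surfactant.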

large (Lg) crabgrass [2] = test: Test A preemergence; format: in vivo, Digitaria sanguinalis
Outline: as §1

giant foxtail [3] = test: Test A preemergence; format: in vivo, Setaria faberii
Outline: as §1

morningglory [4] = test: Test A preemergence; format: in vivo, Ipomoea spp.
Outline: as §1

pigweed [5] = test: Test A preemergence; format: in vivo, Amaranthus retroflexus
Outline: as §1

velvetleaf [6] = test: Test A preemergence; format: in vivo, Abutilon theophrasti
Outline: as §1

wheat [7] = test: Test A preemergence; format: in vivo, Triticum aestivum
Outline: as §1

corn [8] = test: Test A preemergence; format: in vivo, Zea mays
Outline: as §1

barnyardgrass [9] = test: Test A postemergence; format: in vivo, Echinochloa crus-galli
Outline: as §1

large (Lg) crabgrass [10] = test: Test A postemergence; format: in vivo, Digitaria sanguinalis
Outline: as §1

giant foxtail [11] = test: Test A postemergence; format: in vivo, Setaria faberii
Outline: as §1

morningglory [12] = test: Test A postemergence; format: in vivo, Ipomoea spp.
Text: Seeds of plant species selected from barnyardgrass (Echinochloa crus-galli), kochia (Kochia scoparia), ragweed (common ragweed, Ambrosia elatior), Italian ryegrass (Lolium multiflorum), large (Lg) crabgrass (Digitaria sanguinalis), giant foxtail (Setaria faberii), morningglory (Ipomoea spp.), pigweed (Amaranthus retroflexus), velvetleaf (Abutilon theophrasti), wheat (Triticum aestivum), and corn (Zea mays) were planted into a blend of loam soil and sand and treated preemergence with a directed soil spray using test chemicals formulated in a non-phytotoxic solvent mixture which included a surfactant.
At the same time, plants selected from these crop and weed species and also blackgrass (Alopecurus myosuroides), and galium (catchweed bedstraw, Galium aparine) were planted in pots containing the same blend of loam soil and sand and treated with postemergence applications of test chemicals formulated in the same manner. Plants ranged in height from 2 to 10 cm and were in the one- to two-leaf stage for the postemergence treatment. Treated plants and untreated controls were maintained in a greenhouse for approximately 10 days, after which time all treated plants were compared to untreated controls and visually evaluated for injury. Plant response ratings, summarized in Table A, are based on a 0 to 100 scale where 0 is no effect and 100 is complete control. A dash (-) response means no test result.

pigweed [13] = test: Test A postemergence; format: in vivo, Amaranthus retroflexus
Outline: as §1

velvetleaf [14] = test: Test A postemergence; format: in vivo, Abutilon theophrasti
Outline: as §1

wheat [15] = test: Test A postemergence; format: in vivo, Triticum aestivum
Outline: as §1

corn [16] = test: Test A postemergence; format: in vivo, Zea mays
Outline: as §1

rice = test: Test B flooded paddy test; format: in vivo, Oryza sativa; conditions: Flood, 250 g ai/ha; 0 to 100 scale where 0 is no effect and 100 is complete control
Outline: (§2)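 Scores from 0 (no effect) to 100 (complete control) are visual comparisons with controls, taken 13 to 15 days after compound was applied into floodwater 3 cm deep around 2-leaf plants.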

sedge, umbrella = test: Test B flooded paddy test; format: in vivo, Cyperus difformis; conditions: Flood, 250 g ai/ha; 0 to 100 scale where 0 is no effect and 100 is complete control
Outline: as §2

Heteranthera limosa = test: Test B flooded paddy test; format: in vivo; conditions: Flood, 250 g ai/ha; 0 to 100 scale where 0 is no effect and 100 is complete control
Procedure: (§3) Plant species in the flooded paddy test selected from rice (Oryza sativa), sedge, umbrella (small-flower umbrella sedge, Cyperus difformis), (Heteranthera limosa), and barnyardgrass (Echinochloa crus-galli) were grown to the 2-leaf stage for testing. At time of treatment, test pots were flooded to 3 cm above the soil surface, treated by application of test compounds directly to the paddy water, and then maintained at that water depth for the duration of the test. Treated plants and controls were maintained in a greenhouse for 13 to 15 days, after which time all species were compared to controls and visually evaluated. Plant response ratings, summarized in Table B, are based on a scale of 0 to 100 where 0 is no effect and 100 is complete control. A dash (-) response means no test result.

barnyardgrass [17] = test: Test B flooded paddy test; format: in vivo, Echinochloa crus-galli; conditions: Flood, 250 g ai/ha; 0 to 100 scale where 0 is no effect and 100 is complete control
Procedure: as §3

[18] = 125 g ai/ha, 0 to 100 scale where 0 is no effect and 100 is complete control
[19] = 500 g ai/ha, 0 to 100 scale, 0 no effect, 100 complete control, approx. 10 days
[20] = 500 g ai/ha, 0 to 100 scale, 0 no effect, 100 complete control
[21] = 1000 g ai/ha, 0 to 100 scale, 0 no effect, 100 complete control
[22] = 1000 g ai/ha, 0 to 100 scale, 0 no effect, 100 complete control, approx. 10 days

Row | Compound | Barnyardgrass plant response rating (barnyardgrass [1]; [18]) | Barnyardgrass plant response rating (barnyardgrass [1]; [19]) | Crabgrass, Large plant response rating (large (Lg) crabgrass [2]; [18]) | Crabgrass, Large plant response rating (large (Lg) crabgrass [2]; [19]) | Foxtail, Giant plant response rating (giant foxtail [3]; [18]) | Foxtail, Giant plant response rating (giant foxtail [3]; [19]) | Morningglory plant response rating (morningglory [4]; [18]) | Morningglory plant response rating (morningglory [4]; [19]) | Pigweed plant response rating (pigweed [5]; [18]) | Pigweed plant response rating (pigweed [5]; [19]) | Velvetleaf plant response rating (velvetleaf [6]; [18]) | Velvetleaf plant response rating (velvetleaf [6]; [19]) | Wheat plant response rating (wheat [7]; [18]) | Wheat plant response rating (wheat [7]; [19]) | Corn plant response rating (corn [8]; [18]) | Corn plant response rating (corn [8]; [19]) | Plant response rating, Rice (rice) | Plant response rating, Sedge, Umbrella (sedge, umbrella) | Plant response rating, Ducksalad (Heteranthera limosa) | Plant response rating, Barnyardgrass (barnyardgrass [17]) | other results
1 | FC(F)(F)c1ccn(-c2ccccc2Oc2ncc(Br)cn2)n1 [Compound 1] | 20 | 70 | 50 | 100 | 60 | 100 | 0 | 0 | 60 | 100 | 0 | 20 | 0 | 0 | 0 | 0 | 0 | 0 | 0 | 0 | Plant response rating, Barnyardgrass (barnyardgrass [9]; [18]): 10; Plant response rating, Barnyardgrass (barnyardgrass [9]; [20]): 30; Plant response rating, Crabgrass, Large (large (Lg) crabgrass [10]; [18]): 20; Plant response rating, Crabgrass, Large (large (Lg) crabgrass [10]; [20]): 50; Plant response rating, Foxtail, Giant (giant foxtail [11]; [18]): 10; Plant response rating, Foxtail, Giant (giant foxtail [11]; [20]): 60; Plant response rating, Morningglory (morningglory [12]; [18]): 0; Plant response rating, Morningglory (morningglory [12]; [20]): 20; Plant response rating, Pigweed (pigweed [13]; [18]): 50; Plant response rating, Pigweed (pigweed [13]; [20]): 100; Plant response rating, Velvetleaf (velvetleaf [14]; [18]): 20; Plant response rating, Velvetleaf (velvetleaf [14]; [20]): 70; Plant response rating, Wheat (wheat [15]; [18]): 0; Plant response rating, Wheat (wheat [15]; [20]): 0; Plant response rating, Corn (corn [16]; [18]): 0; Plant response rating, Corn (corn [16]; [20]): 10
2 | FC(F)(F)c1cnc(Oc2ccccc2-n2cc(Cl)cn2)nc1 [Compound 6] | 20 | 90 | 90 | 100 | 90 | 100 | 0 | 10 | 100 | 100 | 100 | 100 | 0 | 30 | 0 | 20 | 15 | 55 | 65 | 0 | Plant response rating, Barnyardgrass (barnyardgrass [9]; [18]): 40; Plant response rating, Barnyardgrass (barnyardgrass [9]; [20]): 100; Plant response rating, Crabgrass, Large (large (Lg) crabgrass [10]; [18]): 50; Plant response rating, Crabgrass, Large (large (Lg) crabgrass [10]; [20]): 100; Plant response rating, Foxtail, Giant (giant foxtail [11]; [18]): 80; Plant response rating, Foxtail, Giant (giant foxtail [11]; [20]): 100; Plant response rating, Morningglory (morningglory [12]; [18]): 40; Plant response rating, Morningglory (morningglory [12]; [20]): 70; Plant response rating, Pigweed (pigweed [13]; [18]): 100; Plant response rating, Pigweed (pigweed [13]; [20]): 100; Plant response rating, Velvetleaf (velvetleaf [14]; [18]): 100; Plant response rating, Velvetleaf (velvetleaf [14]; [20]): 100; Plant response rating, Wheat (wheat [15]; [18]): 40; Plant response rating, Wheat (wheat [15]; [20]): 90; Plant response rating, Corn (corn [16]; [18]): 20; Plant response rating, Corn (corn [16]; [20]): 60
3 | Fc1cnc(Oc2ccccc2-n2cc(Cl)cn2)nc1 [Compound 11] | 70 | 100 | 90 | 100 | 90 | 100 | 30 | 60 | 90 | 100 | 90 | 100 | 0 | 0 | 0 | 30 | 0 | 0 | 50 | 0 | Plant response rating, Barnyardgrass (barnyardgrass [9]; [18]): 10; Plant response rating, Barnyardgrass (barnyardgrass [9]; [20]): 90; Plant response rating, Crabgrass, Large (large (Lg) crabgrass [10]; [18]): 70; Plant response rating, Crabgrass, Large (large (Lg) crabgrass [10]; [20]): 90; Plant response rating, Foxtail, Giant (giant foxtail [11]; [18]): 70; Plant response rating, Foxtail, Giant (giant foxtail [11]; [20]): 90; Plant response rating, Morningglory (morningglory [12]; [18]): 60; Plant response rating, Morningglory (morningglory [12]; [20]): 100; Plant response rating, Pigweed (pigweed [13]; [18]): 100; Plant response rating, Pigweed (pigweed [13]; [20]): 100; Plant response rating, Velvetleaf (velvetleaf [14]; [18]): 100; Plant response rating, Velvetleaf (velvetleaf [14]; [20]): 100; Plant response rating, Wheat (wheat [15]; [18]): 0; Plant response rating, Wheat (wheat [15]; [20]): 20; Plant response rating, Corn (corn [16]; [18]): 10; Plant response rating, Corn (corn [16]; [20]): 50
4 | Brc1cnc(Oc2ccccc2-n2cccn2)nc1 [Compound 13] |  |  |  |  |  |  |  |  |  |  |  |  |  |  |  |  | 0 | 0 | 30 | 0 | Plant response rating, Barnyardgrass (barnyardgrass [1]; [21]): 80; Plant response rating, Crabgrass, Large (large (Lg) crabgrass [2]; [21]): 100; Foxtail, Giant plant response rating (giant foxtail [3]; [22]): 100; Morningglory plant response rating (morningglory [4]; [22]): 0; Pigweed plant response rating (pigweed [5]; [22]): 100; Velvetleaf plant response rating (velvetleaf [6]; [22]): 100; Wheat plant response rating (wheat [7]; [22]): 20; Plant response rating, Corn (corn [8]; [21]): 0; Plant response rating, Barnyardgrass (barnyardgrass [9]; [21]): 90; Plant response rating, Crabgrass, Large (large (Lg) crabgrass [10]; [21]): 90; Plant response rating, Foxtail, Giant (giant foxtail [11]; [21]): 100; Plant response rating, Morningglory (morningglory [12]; [21]): 90; Plant response rating, Pigweed (pigweed [13]; [21]): 100; Plant response rating, Velvetleaf (velvetleaf [14]; [21]): 100; Plant response rating, Wheat (wheat [15]; [21]): 60; Plant response rating, Corn (corn [16]; [21]): 40
